Like-named read-outs stand apart in the source and are kept apart here. Where only a bound is given, the exact number is not on record here.

Type in all cases: cell-based
Assay [1] has as its system Human Small Cell Lung Cancer NCI-H82. Nature of the assay: Cell proliferation experiment (Alarm blue), H82. As to the method:
(§1) The cells were cultured in conventional ways, and the cells should be passed for at least 2 generations before plating. Cells at the logarithmic growth phase were collected, prepared into single cell suspensions and counted. The concentration of cells was adjusted to desired concentration, and cells were inoculated into a 96-well cell culture plate at 100 μl per well. 100 μL of complete medium of the test compound were added to each well, 2 replicate wells for each concentration were set up, and diluted with a 5-fold gradient, and continued to culture for 72 h. All cells were subjected to EC50 test for corresponding samples.
(§2) The fluorescence intensity of each well was detected using the Alarm blue method, and IC50 was calculated.
(§3) IC50 was calculated according to the following formula:
(§4) [formula] • wherein Min, Max and Slope represent the minimum, maximum and slope respectively.

In the next assay the test system is Human Colon Cancer HT-29. Description: Cell proliferation experiment (Alarm blue), HT-29. As to the method:
as §1, §2, §3, §4

The subject of assay [2] is human gastric carcinoma cells N87. Nature of the assay: Cell proliferation experiment (Alarm blue), N87. As to the method: as §1, §2, §3, §4
In assay [3] the test system is Human Colon Cancer cells Colo205. Description: Cell proliferation experiment (Alarm blue), Colo205. As to the method:
as §1, §2, §3, §4

Assay [4] deals with Human Small Cell Lung Cancer H69. Nature of the assay: Cell proliferation experiment (Alarm blue), H69. As to the method:
as §1, §2, §3, §4

Setting [5] is: Homo sapiens, NCI-H82, 72 h, H82 cells, 72 h culture, read-out: Anti cell proliferative activity EC50, H82.
Setting [6] is: Homo sapiens, HT-29 cells, 72 h culture, read-out: Anti cell proliferative activity EC50, HT-29.
Where [7] appears, read: Homo sapiens, 72 h, N87 cells, 72 h culture, read-out: Anti cell proliferative activity EC50, N87.
[8] abbreviates: Homo sapiens, COLO 205, 72 h, Colo205 cells, 72 h culture, read-out: Anti cell proliferative activity EC50, Colo205.
The mark [9] stands for this setting: Homo sapiens, NCI-H69, H69 cells, 72 h culture, read-out: Anti cell proliferative activity EC50, H69.
Where [10] appears, read: H82 cells, 72 h culture, read-out: Anti cell proliferative activity EC50, H82.
The mark [11] stands for this setting: HT-29 cells, 72 h culture, read-out: Anti cell proliferative activity EC50, HT-29.
Where [12] appears, read: N87 cells, 72 h culture, read-out: Anti cell proliferative activity EC50, N87.
Where [13] appears, read: Colo205 cells, 72 h culture, read-out: Anti cell proliferative activity EC50, Colo205.
Where [14] appears, read: H69 cells, 72 h culture, read-out: Anti cell proliferative activity EC50, H69.

In general, EC50 refers to the concentration giving half of the maximal effect. Take `NC(=O)c1ccccc1Nc1nc(Nc2ccc(N3CCN(C(=O)N[C@H]4CC[C@@H](NC5CN(CC#Cc6ccc7c(c6)CN(C6CCC(=O)NC6=O)C7=O)C5)CC4)CC3)cc2)ncc1Cl` (some centres unmarked) [UB-181270]: the EC50 in assay [1] (setting [5]) amounted to 147 nM; with Human Colon Cancer HT-29 (setting [6]) it was 951 nM; in assay [2] (setting [7]), 258 nM; in assay [3] (setting [8]) it was 218 nM; in assay [4] (setting [9]) it was 454 nM.

Consider `CNC(=O)c1ccccc1Nc1nc(Nc2ccc(N3CCN(C(=O)N[C@H]4CC[C@@H](N(CCC#Cc5ccc6c(c5)CN(C5CCC(=O)NC5=O)C6=O)C(=O)OCc5ccc(NC(=O)[C@H](CC(N)=O)NC(=O)[C@H](C)NC(=O)[C@H](C)NC(=O)COCCOC)cc5)CC4)CC3)cc2)ncc1Cl` (some centres unmarked) [UB-181237], for which the EC50 in assay [1] (Homo sapiens, NCI-H82, H82 cells, 72 h culture, read-out: Anti cell proliferative activity EC50, H82) is 141 nM; in the assay with Human Colon Cancer HT-29 (setting [6]) it was 902 nM; in assay [2] (Homo sapiens, N87 cells, 72 h culture, read-out: Anti cell proliferative activity EC50, N87), 308 nM; in assay [3] (Homo sapiens, COLO 205, Colo205 cells, 72 h culture, read-out: Anti cell proliferative activity EC50, Colo205) it was 277 nM; in assay [4] (setting [9]), over 1000 nM.

For the compound `CC(C)c1cc(-c2nnc(O)n2-c2ccc3c(ccn3CCC3CCN(C(=O)NCCOCCOCCOCCOCCOCCOCCOCCOCCC(=O)N[C@@H](CSC4CC(=O)N(CCCCCC(=O)N[C@@H](C)C(=O)N[C@@H](C)C(=O)N[C@@H](CC(N)=O)C(=O)Nc5ccc(COC(=O)N(CCC#Cc6ccc7c(c6)CN(C6CCC(=O)NC6=O)C7=O)C6CCC(NC(=O)N7CCN(c8ccc(Nc9ncc(Cl)c(Nc%10ncc(Cl)c(Nc%11ccccc%11C(N)=O)n%10)n9)cc8)CC7)CC6)cc5)C4=O)C(=O)N[C@H](Cc4ccccc4)C(=O)N[C@H]4CSSC[C@@H](C(=O)N[C@H](CO)[C@@H](C)O)NC(=O)[C@H]([C@@H](C)O)NC(=O)[C@H](CCCCN)NC(=O)[C@@H](Cc5c[nH]c6ccccc56)NC(=O)[C@H](Cc5ccccc5)NC4=O)CC3)c2)c(O)cc1O` (some centres unmarked) [UB-181289], the 50% effective concentration (EC50) in assay [1] (setting [10]) was 410 nM; with Human Colon Cancer HT-29 (setting [11]), over 1000 nM; in assay [2] (setting [12]) it was 698 nM; in assay [3] (setting [13]), 621 nM; in assay [4] (setting [14]), over 1000 nM.

Turning to `CNC(=O)c1ccccc1Nc1nc(Nc2ccc(N3CCN(C(=O)CNCCC#Cc4ccc5c(c4)CN(C4CCC(=O)NC4=O)C5=O)CC3)cc2)ncc1Cl` (centres unmarked) [UB-181272], the EC50 in assay [1] (setting [5]) is 19.1 nM; in the assay on Human Colon Cancer HT-29 (setting [6]), 332 nM; in assay [2] (setting [7]) it was 23.1 nM; in assay [3] (setting [8]), 21.1 nM; in assay [4] (setting [9]), over 1000 nM.

Regarding `NC(=O)c1ccccc1Nc1nc(Nc2ccc(N3CCN(C(=O)CNCCC#Cc4ccc5c(c4)CN(C4CCC(=O)NC4=O)C5=O)CC3)cc2)ncc1Cl` (centres unmarked) [UB-181273], the concentration giving a half-maximal response (EC50) is 21.6 nM in assay [1] (setting [5]); 56.2 nM in the assay with Human Colon Cancer HT-29 (setting [6]); over 1000 nM in assay [2] (setting [7]); 21.4 nM in assay [3] (setting [8]); 375 nM in assay [4] (setting [9]).

Regarding `CNC(=O)c1ccccc1Nc1nc(Nc2ccc(N3CCN(C(=O)NC4CCC(N(CCC#Cc5ccc6c(c5)CN(C5CCC(=O)NC5=O)C6=O)C(=O)OCc5ccc(NC(=O)[C@H](CC(N)=O)NC(=O)[C@H](C)NC(=O)[C@H](C)NC(=O)CCCCCN6C(=O)CC(SC[C@H](NC(=O)[C@H](CC(=O)O)NC(=O)[C@H](CC(=O)O)NC(=O)[C@H](CCCNC(=N)N)NC(=O)[C@H](CC(=O)O)NC(=O)CCC(NC(=O)c7ccc(NCc8cnc9nc(N)[nH]c(=O)c9n8)cc7)C(=O)O)C(=O)O)C6=O)cc5)CC4)CC3)cc2)ncc1Cl` (some centres unmarked) [UB-181298], the EC50 in assay [1] (72 h) is 8.8 nM; with Human Colon Cancer HT-29 (72 h), over 1000 nM; in assay [2] (72 h), 273 nM; in assay [3] (72 h), 4.1 nM; in assay [4] (72 h), over 1000 nM.

With `NC(=O)c1ccccc1Nc1nc(Nc2ccc(C3CCN(C(=O)N[C@H]4C[C@@H](NCCC#Cc5ccc6c(c5)CN(C5CCC(=O)NC5=O)C6=O)C4)CC3)cc2)ncc1Cl` (some centres unmarked) [UB-181279], the EC50 was 24.9 nM in assay [1] (setting [5]); 415 nM with Human Colon Cancer HT-29 (setting [6]); over 1000 nM in assay [2] (setting [7]); 65.2 nM in assay [3] (setting [8]); over 1000 nM in assay [4] (setting [9]).

Take `CNC(=O)c1ccccc1Nc1nc(Nc2ccc(N3CCN(C(=O)N[C@H]4CC[C@@H](N(CCC#Cc5ccc6c(c5)CN(C5CCC(=O)NC5=O)C6=O)C(=O)OC(C)C(C)SSC[C@H](N)C(=O)N[C@H](Cc5ccccc5)C(=O)N[C@H]5CSSC[C@@H](C(=O)N[C@H](CO)[C@@H](C)O)NC(=O)[C@H]([C@@H](C)O)NC(=O)[C@H](CCCCN)NC(=O)[C@@H](Cc6c[nH]c7ccccc67)NC(=O)[C@H](Cc6ccccc6)NC5=O)CC4)CC3)cc2)ncc1Cl` (some centres unmarked) [UB-181243]: the 50% effective concentration (EC50) in assay [1] (setting [10]) was 240 nM; in the assay on Human Colon Cancer HT-29 (setting [11]), over 1000 nM; in assay [2] (setting [12]), 668 nM; in assay [3] (setting [13]), 311 nM; in assay [4] (setting [14]), over 1000 nM.

For `CNC(=O)c1ccccc1Nc1nc(Nc2ccc(N3CCN(C(=O)N[C@H]4CC[C@@H](N(CCC#Cc5ccc6c(c5)CN(C5CCC(=O)NC5=O)C6=O)C(=O)OCc5ccc(NC(=O)[C@H](CCCNC(N)=O)NC(=O)[C@@H](NC(=O)CCCCCN6C(=O)CC(SC[C@H](N)C(=O)N[C@H](Cc7ccccc7)C(=O)N[C@H]7CSSC[C@@H](C(=O)N[C@H](CO)[C@@H](C)O)NC(=O)[C@H]([C@@H](C)O)NC(=O)[C@H](CCCCN)NC(=O)[C@@H](Cc8c[nH]c9ccccc89)NC(=O)[C@H](Cc8ccccc8)NC7=O)C6=O)C(C)C)cc5)CC4)CC3)cc2)ncc1Cl` (some centres unmarked) [UB-181246], the EC50 in assay [1] (setting [10]) was 298 nM; in the assay with Human Colon Cancer HT-29 (setting [11]), over 1000 nM; in assay [2] (setting [12]) it was 515 nM; in assay [3] (setting [13]), 236 nM; in assay [4] (setting [14]), over 1000 nM.

For `NC(=O)c1ccccc1Nc1nc(Nc2ccc(N3CCN(C(=O)N[C@H]4C[C@@H](NCCC#Cc5ccc6c(c5)CN(C5CCC(=O)NC5=O)C6=O)C4)CC3)cc2)ncc1Cl` (some centres unmarked) [UB-181259], the 50% effective concentration (EC50) in assay [1] (setting [5]) came to 20.9 nM; with Human Colon Cancer HT-29 (setting [6]), 194 nM; in assay [2] (setting [7]) it was 111 nM; in assay [3] (setting [8]) it was 33.9 nM; in assay [4] (setting [9]), 19.1 nM.

As to `CC[C@@H]1C(=O)N(C)c2cnc(Nc3ccc(-c4cn([C@H]5CC[C@@H](N(CCOCCC#Cc6cccc7c6CN(C6CCC(=O)NC6=O)C7=O)C(=O)OCc6ccc(NC(=O)[C@H](CC(N)=O)NC(=O)[C@H](C)NC(=O)[C@H](C)NC(=O)CCCCCN7C(=O)CC(SC[C@H](N)C(=O)N[C@@H](Cc8ccccc8)C(=O)N[C@H]8CSSC[C@@H](C(=O)N[C@H](CO)[C@@H](C)O)NC(=O)[C@H]([C@@H](C)O)NC(=O)[C@H](CCCCN)NC(=O)[C@@H](Cc9c[nH]c%10ccccc9%10)NC(=O)[C@H](Cc9ccccc9)NC8=O)C7=O)cc6)CC5)nn4)cc3OC)nc2N1C1CCCC1` (some centres unmarked) [UB-181334], the EC50 is 989 nM in assay [1] (72 h); over 1000 nM in the assay on Human Colon Cancer HT-29 (72 h); 927 nM in assay [2] (72 h); 286 nM in assay [3] (72 h); 955 nM in assay [4] (72 h).

As for `CC[C@@H]1C(=O)N(C)c2cnc(Nc3ccc(-c4cn([C@H]5CC[C@@H](N(CCOCCC#Cc6cccc7c6CN(C6CCC(=O)NC6=O)C7=O)C(=O)OCCSSC[C@H](NC(=O)[C@H](CC(=O)O)NC(=O)[C@H](CC(=O)O)NC(=O)[C@H](CCCNC(=N)N)NC(=O)[C@H](CC(=O)O)NC(=O)CC[C@H](NC(=O)c6ccc(NCc7cnc8nc(N)[nH]c(=O)c8n7)cc6)C(=O)O)C(=O)O)CC5)nn4)cc3OC)nc2N1C1CCCC1` (some centres unmarked) [UB-181336], the EC50 (in assay [1] (72 h); in the assay on Human Colon Cancer HT-29 (72 h); in assay [2] (72 h); in assay [3] (72 h); in assay [4] (72 h)) was over 1000 nM each time.

For `C[C@H](NC(=O)CCCCCN1C(=O)CC(SC[C@H](N)C(=O)N[C@@H](Cc2ccccc2)C(=O)N[C@H]2CSSC[C@@H](C(=O)N[C@H](CO)[C@@H](C)O)NC(=O)[C@H]([C@@H](C)O)NC(=O)[C@H](CCCCN)NC(=O)[C@@H](Cc3c[nH]c4ccccc34)NC(=O)[C@H](Cc3ccccc3)NC2=O)C1=O)C(=O)N[C@@H](C)C(=O)N[C@@H](CC(N)=O)C(=O)Nc1ccc(COC(=O)N(CCC#Cc2ccc3c(c2)CN(C2CCC(=O)NC2=O)C3=O)C2CCC(NC(=O)N3CCN(c4ccc(Nc5ncc(Cl)c(Nc6ccccc6C(N)=O)n5)cc4)CC3)CC2)cc1` (some centres unmarked) [UB-181285], the EC50 was 125 nM in assay [1] (setting [10]); 528 nM in the assay with Human Colon Cancer HT-29 (setting [11]); 50 nM in assay [2] (setting [12]); 62.1 nM in assay [3] (setting [13]); over 1000 nM in assay [4] (setting [14]).

These data come from US20250041306A1, “TARGETED PROTEASE DEGRADATION (TED) PLATFORM” (EUBULUS BIOTHERAPEUTICS INC., priority 2021, published 2025).
